Data reported in a melting point compilation (Tetko et al.; mined from patent text by program, amines drawn as free bases though some values may be those of a salt).

Row | Compound | melting point [°C]
1 | CCCCCCCCCCCCCCOc1ccc(NC(=O)Nc2cccc(CCBr)c2)cc1 | 164 to 169
2 | NC(=O)c1ncn2c1NCC=C2c1cccc(Cl)c1 | 182 to 184
3 | COC(=O)CCNCC1CC2c3cccc4[nH]cc(c34)CC2N(C)C1 (stereo not given) | 130 to 132
4 | COc1cc(OC)c(C2C=CCO2)cc1C=CC(=O)c1ccc(S(N)(=O)=O)cc1 (stereo not given) | 194 to 195
5 | COc1ccc(C(=O)Nc2nc(-c3ccco3)c(-c3ccncc3)s2)cc1 | 235 to 245
6 | CCC12CCC3c4ccc(OC)cc4C(C)CC3C1CCC2=O (stereo not given) | 115 to 123
7 | CC(C)COC(=O)Oc1c(S(N)(=O)=O)sc2ccccc12 | 129 to 130
8 | Nc1c(C(=O)c2ccoc2)[nH]c2cc(Cl)ccc12 | 113 to 114
9 | Cc1oc(-c2ccccc2)nc1COc1cc(COc2ccccc2CC(=O)O)on1 | 152 to 153
10 | O=C(O[C@H]1Cc2c(O)cc(O)cc2O[C@@H]1c1ccc(O)cc1)c1cc(O)c(O)c(O)c1 | 96 to 98
11 | COC(=O)c1ccc(CNC(=O)C2Cc3ccccc3N2S(=O)(=O)c2ccc(-c3cccc(C(F)(F)F)c3)cc2)c(OC)c1 (stereo not given) | 78 to 85
12 | O=Cc1ccc(N(c2ccccc2)c2ccccc2)c2ccccc12 | 107 to 110
13 | CCOC(=O)c1c(Cn2cncn2)nc2sc3ccncc3c2c1-c1ccc(OC)c(OC)c1 | 166 to 167
14 | COc1nc(C)nc(NC(=O)NS(=O)(=O)c2cc(Br)cc3c2OS(=O)(=O)C(C)=C3)n1 | 196 to 198
15 | COC[C@H]1CN(C2=Nc3ccccc3Nc3sc(C)cc32)CCN1C | 76 to 80
16 | CCOC(=O)[C@H](NS(=O)(=O)c1ccc(C)cc1)[C@@H]1CO[C@@H](c2ccccc2)C1 | 97 to 99
17 | CCCc1nc2c(N)nc3cccnc3c2n1CCCCCC(=O)N1CCOCC1 | 148 to 150
18 | Cc1nc(C)c(-c2ccnc(Nc3cccc(CN)c3)n2)s1 | 183 to 184
19 | CC1=CCC(O)(C(C)(C)Sc2ccccc2)CC1 (stereo not given) | 73 to 74
20 | Cn1cccc1C(=O)Nc1cccc(/C=C/C(=O)O)c1 | 202 to 204
21 | CCCn1c(=O)c2c(n(Cc3ccccc3)c1=O)NN=C(NC(C)=O)S2 | 135 to 140
22 | Oc1cc(-c2cc3n(n2)CCCC3)c(F)cc1Cl | 218 to 220
23 | Cn1nc(COc2ccc(C=O)cc2)c2ccccc2c1=O | 168 to 170
24 | Cc1cc(Oc2ccc([N+](=O)[O-])cc2)c2ncccc2c1 | 143
25 | C=CCn1nc(-c2ccc(O)cc2O)c2cccc(C(F)(F)F)c21 | 114 to 115

Row | Compound | melting point [°C]
26 | N=C(c1cc(Cl)ccc1N)C1CCCCC1 | 65
27 | Cc1cc(I)cc2c(=O)[nH]oc12 | 232 to 233
28 | CCOC(=O)c1sc2ccc(OC)cc2c1OCC | 42 to 43
29 | C=CCc1c(OCC=Cc2ccccc2)ccc2c1CCC(=O)N2CC=Cc1ccccc1 | 66 to 68
30 | CN(CC(O)[C@H](Cc1ccccc1)NC(=O)c1ccccc1)C(=O)N1CCC[C@H]1C(=O)O (stereo not given in full) | 108 to 117
31 | CCc1cccc2c3c([nH]c12)C(CC)(CCF)OCC3 (stereo not given) | 118 to 119
32 | COC1CN(C(=O)c2cc(-c3ccccc3)c(=O)n3c2-c2cc(Cl)ccc2CN3)C1 | 238 to 239
33 | O=C1N[C@H](C(=O)NCCO[N+](=O)[O-])[C@@H](c2ccccc2)O1 | 122 to 124
34 | C=C(c1ccc(N2CCCC2)cc1)c1ccc(N2CCCC2)cc1 | 211
35 | Cc1cc2c(c(C)c1[N+](=O)[O-])OCO2 | 75 to 76
36 | CSc1nc(OCC2COC(C)(C)O2)c2c(-c3ccccc3Cl)n[nH]c2n1 (stereo not given) | 120 to 122
37 | COc1ccc(S(=O)(=O)C(C/C=C(\C)CCC=C(C)C)(Cc2ccc(OCCN3CCOCC3)cc2)C(=O)NO)cc1 (stereo not given) | 61
38 | O=C(O)c1ccc(-c2cc(-c3ccc(Cl)cc3)on2)cc1 | > 300
39 | COC(=O)C(O)c1ccccc1[N+](=O)[O-] (stereo not given) | 69 to 71
40 | O=C1NC(=S)SC1=C(c1ccccc1)c1ccccc1 | 192 to 194
41 | CCCCCCCCC(=O)Nc1ccn(C2OC(CO)C(O)C2O)c(=O)n1 (stereo not given) | 150 to 152
42 | CCNCC(=O)Nc1cccc2c1C(=O)c1c-2n[nH]c1-c1ccc(OC)cc1 | 250
43 | C#CC1(O)CCC2C3CCC4CC=CCC4C3CCC21C (stereo not given) | 108 to 109
44 | N#Cc1ccc(OCCCCCCOc2cccc(-c3cc4ccc(C#N)cc4o3)c2)cc1 | 125 to 127
45 | C=Cc1cnc2c(NC(=O)c3c(Cl)cccc3Cl)cccc2c1CCO | 133 to 135
46 | CC(C)(C)c1nc(C=O)c[nH]1 | 194 to 195
47 | CCCCn1c(=O)c2c(ncn2S(=O)(=O)Cc2ccccc2)n(CCCC)c1=O | 117 to 118
48 | O=[N+]([O-])c1ccc2[nH]c(/C=C/c3ccoc3)nc2c1 | 230 to 233
49 | COc1cc([N+](=O)[O-])c2nccc(C)c2c1Cl | 167 to 169
50 | Cc1ccc2c(c1)C(=O)c1ccccc1S2(=O)=O | 179 to 198
